Data from patent US12018021B2 (UCB Biopharma SRL, priority 2018, dated 2024).
pIC50: −log10 of the molar value.

Target: IgE-Tb / FcεRIα-Y131A-AF488 (Homo sapiens, UniProt P01854)
Test: IgE-Tb / FcεRIα-Y131A-AF488 FRET assay (protocol for examples 1 to 233)
Assay type: binding
Details: examples 1 to 233: 5 nM IgE-Tb, 25 nM FcεRIα-Y131A-AF488, incubated 2 hours at room temperature; read-out: Y131A FRET IC50 range
Description: For examples 1 to 233, the assay was conducted according to the following: Each assay reaction was conducted in a volume of 25 μl in a 384-well half-volume plate. 10 point compound serial dilutions (3-fold) were generated in DMSO at a concentration of ×50 that of the final assay concentration (FAC). Compound solutions were then prepared by IgE-Tb diluting 10-fold in assay buffer. For the assay, 5 μl of diluted compound was added to 10 μl of, followed by addition of 10 μl FcεRIα-Y131A-AF488. FRET reagents FACs were 5 nM IgE-Tb, 25 nM FcεRIα-Y131A-AF488. Usually the top FAC of compound in the assay was 10 μM. The final DMSO concentration was 2%. The minimum signal (MIN) was measured by adding 5l unlabelled FcεRIα at 1 μM (FAC=200 nM) to the FRET reagents. The maximum FRET signal (MAX) was measured in wells containing FRET reagents but no compound. The assay was incubated for 2 hours at room temperature, protected from light and evaporation, and with gentle agitation.
Measurement of FRET for each well was carried out by exciting at 330 nm and measuring emission at 495/520 nm using an Envision plate reader (Perkin Elmer). FRET ratio was calculated as follows: Emission at 520/Emission at 495×1000.
The FRET ratio was used for the data analysis.
Z′ was calculated as follows (σ=standard deviation and μ=mean): 1−((3×σMAX)+(3×σMIN))/(μMAX−μMIN)
Z′ above 0.5 was considered a good assay.
Background signal (MIN) was subtracted from all wells. Using the background subtracted values, the percent inhibition by compound in each test-well was calculated as follows: 100−Test-well FRET ratio/MAX FRET ratio×100.
Percent inhibition was plotted against compound concentration. IC50 values for each compound were determined using four parameter logistic fit model using the XLFIT5 software package.

Sequence of IgE-Tb / FcεRIα-Y131A-AF488 (P01854 1-427 limits assumed, stated change not applied): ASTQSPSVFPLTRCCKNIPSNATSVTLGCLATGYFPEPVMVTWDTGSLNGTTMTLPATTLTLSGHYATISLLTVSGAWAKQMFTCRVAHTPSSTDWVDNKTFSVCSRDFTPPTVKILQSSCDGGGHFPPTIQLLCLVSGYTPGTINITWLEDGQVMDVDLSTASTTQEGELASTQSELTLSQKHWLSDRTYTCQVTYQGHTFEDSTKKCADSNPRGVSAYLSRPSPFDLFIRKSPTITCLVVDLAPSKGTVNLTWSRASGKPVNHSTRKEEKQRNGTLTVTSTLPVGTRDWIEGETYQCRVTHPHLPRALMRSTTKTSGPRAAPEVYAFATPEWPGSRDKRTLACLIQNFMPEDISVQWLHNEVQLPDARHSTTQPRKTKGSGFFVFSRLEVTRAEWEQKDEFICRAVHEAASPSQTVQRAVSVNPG

With `CNC(=O)c1c(NC(=O)C2CC2C)sc2c1CCCC2` (mixture of isomers) [Example 102, N-Methyl-2-[(2-methylcyclopropanecarbonyl)amino]-4,5,6,7-tetrahydrobenzothiophene-3-carboxamide] as the compound, how does the pIC50 read?
Its pIC50 is 4.30 to 5.00.

How did the pIC50 turn out when `C[S+]([O-])NC1CCc2sc(NC(=O)C3CC3)c(C(=O)NCC3CC3)c2C1` (mixture of isomers) [Example 199, 2-(Cyclopropanecarbonylamino)-N-(cyclopropylmethyl)-5-(methanesulfinamido)-4,5,6,7-tetrahydrobenzothiophene-3-carboxamide] was run?
The pIC50 was 5.00 to 6.00.

How did the pIC50 turn out when `C[C@@H]1CCc2sc(NC(=O)C3CC3)c(C(=O)NCC3CC3)c21` (single isomer, unassigned) [Example 13] was run?
The pIC50 was 5.00 to 6.00.

How did the pIC50 turn out when `C[C@H]1CCc2sc(NC(=O)C3CC3)c(C(=O)NCC3CC3)c21` (single isomer, unassigned) [Example 14] was run?
The pIC50 was 4.30 to 5.00.

`CC1CC1C(=O)Nc1sc2c(c1C(=O)NCC1CC1)CCCC2` (single isomer, unassigned) [Example 90, N-(cyclopropylmethyl)-2-[(2-methylcyclopropanecarbonyl)amino]-4,5,6,7-tetrahydrobenzothiophene-3-carboxamide] was tested. Which pIC50 did it give?
Its pIC50 is 5.00 to 6.00.

How did the pIC50 turn out when `O=C(Nc1sc2c(c1C(=O)N1CCC3(CC3)C1)CC(n1cnnc1Nc1cccnc1)CC2)C1CC1` (single isomer, unassigned) [Example 128] was run?
The pIC50 was > 6.00.

With `O=C(Nc1sc2c(c1C(=O)N1CCC3(CC3)C1)CC(n1cnnc1Nc1cccnc1)CC2)C1CC1` (single isomer, unassigned) [Example 129] as the compound, how does the pIC50 read?
Its pIC50 is 5.00 to 6.00.

How did the pIC50 turn out when `CCc1c(N[C@@H]2CCc3sc(NC(=O)C4CC4)c(C(=O)NCC4CC4)c3C2)c(=O)c1=O` (single isomer, unassigned) [Example 189] was run?
Its pIC50 is > 6.00.

`CCc1c(N[C@H]2CCc3sc(NC(=O)C4CC4)c(C(=O)NCC4CC4)c3C2)c(=O)c1=O` (single isomer, unassigned) [Example 190] was tested. Which pIC50 did it give?
Its pIC50 is > 6.00.

`CC(C)(C)CNc1nncn1C1CCc2sc(NC(=O)C3CC3)c(C(=O)NCC3CC3)c2C1` (stereo in doubt) [Example 105, (5S)-2-(Cyclopropanecarbonylamino)-N-(cyclopropylmethyl)-5-[3-(2,2-dimethylpropylamino)-1,2,4-triazol-4-yl]-4,5,6,7-tetrahydrobenzothiophene-3-carboxamide] was tested. Which pIC50 did it give?
The pIC50 was > 6.00.

With `CC(C)CNc1nncn1C1CCc2sc(NC(=O)C3CC3)c(C(=O)NCC3CC3)c2C1` (stereo in doubt) [Example 111, (5S)-2-(Cyclopropanecarbonylamino)-N-(cyclopropylmethyl)-5-[3-(isobutylamino)-1,2,4-triazol-4-yl]-4,5,6,7-tetrahydrobenzothiophene-3-carboxamide] as the compound, how does the pIC50 read?
Its pIC50 is > 6.00.

Target: IgE-Tb / sFcεRIα-Y131A-AF488 (Homo sapiens, UniProt P01854, N146Q/N252Q)
Sequence (P01854 whole entry N146Q/N252Q): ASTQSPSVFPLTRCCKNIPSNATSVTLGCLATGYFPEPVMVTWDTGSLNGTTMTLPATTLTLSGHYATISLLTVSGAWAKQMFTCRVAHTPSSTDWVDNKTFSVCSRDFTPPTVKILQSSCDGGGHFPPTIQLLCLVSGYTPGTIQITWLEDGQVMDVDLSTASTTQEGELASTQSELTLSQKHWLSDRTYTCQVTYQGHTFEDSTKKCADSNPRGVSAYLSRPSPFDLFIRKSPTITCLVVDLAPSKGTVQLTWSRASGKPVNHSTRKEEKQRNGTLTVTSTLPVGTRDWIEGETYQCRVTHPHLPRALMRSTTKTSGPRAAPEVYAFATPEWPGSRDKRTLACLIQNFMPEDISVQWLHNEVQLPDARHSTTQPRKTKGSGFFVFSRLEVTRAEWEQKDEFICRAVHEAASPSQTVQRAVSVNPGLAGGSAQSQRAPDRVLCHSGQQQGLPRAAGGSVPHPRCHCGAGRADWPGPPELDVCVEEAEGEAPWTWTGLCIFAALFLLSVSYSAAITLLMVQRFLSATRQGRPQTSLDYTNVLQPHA
Test: IgE-Tb / sFcεRIα-Y131A-AF488 FRET assay (protocol for examples 234 to 501)
Assay type: binding
Details: examples 234 to 501: compound with IgE-Tb 30 minutes before sFcεRIα-Y131A-AF488, incubated 18 hours at room temperature; read-out: Y131A FRET IC50 range
Method in brief: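 Read-out is the 520/490 nm emission ratio (337 nm excitation) after 18 h at room temperature, background subtracted, fitted four-parameter for IC50. Final reagents: 5 nM IgE-Tb, preincubated 30 min with compound (top typically 10 μM, 2% DMSO, 3-fold 10-point), plus 25 nM sFcεRIα-Y131A-AF488.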

`Cn1nc(C(F)F)cc1Nc1nncn1[C@H]1CCc2sc(NC(=O)C3CC(F)(F)C3)c(C(=O)N[C@H]3C[C@H](F)C3)c2C1` [Example 480, (5S)-2-[(3,3-difluorocyclobutanecarbonyl)amino]-5-[3-[[5-(difluoromethyl)-2-methylpyrazol-3-yl]amino]-1,2,4-triazol-4-yl]-N-(trans-3-fluorocyclobutyl)-4,5,6,7-tetrahydro-1-benzothiophene-3-carboxamide] was tested. Which pIC50 did it give?
The pIC50 was > 6.00.

`Cn1nc(OC(F)F)cc1Nc1nncn1[C@H]1CCc2sc(NC(=O)[C@H]3C[C@H](F)C3)c(C(=O)NC[C@@H]3C[C@@H]3F)c2C1` [Example 481, (5S)-5-[3-[[5-(difluoromethoxy)-2-methylpyrazol-3-yl]amino]-1,2,4-triazol-4-yl]-2-[trans-(3-fluorocyclobutanecarbonyl)amino]-N-[[(1S,2S)-2-fluorocyclopropyl]methyl]-4,5,6,7-tetrahydro-1-benzothiophene-3-carboxamide] was tested. Which pIC50 did it give?
The pIC50 was > 6.00.

`Cn1nc(OC(F)F)cc1Nc1nncn1[C@H]1CCc2sc(NC(=O)[C@H]3C[C@H](F)C3)c(C(=O)NC[C@H]3C[C@H]3F)c2C1` [Example 482, (5S)-5-[3-[[5-(difluoromethoxy)-2-methylpyrazol-3-yl]amino]-1,2,4-triazol-4-yl]-2-[trans-(3-fluorocyclobutanecarbonyl)amino]-N-[[(1R,2R)-2-fluorocyclopropyl]methyl]-4,5,6,7-tetrahydro-1-benzothiophene-3-carboxamide] was tested. Which pIC50 did it give?
Its pIC50 is > 6.00.

How did the pIC50 turn out when `Cn1nc(OC(F)F)cc1Nc1nncn1[C@H]1CCc2sc(NC(=O)[C@H]3C[C@H](F)C3)c(C(=O)NC[C@H]3C[C@@H]3F)c2C1` [Example 483, (5S)-5-[3-[[5-(difluoromethoxy)-2-methylpyrazol-3-yl]amino]-1,2,4-triazol-4-yl]-2-[trans-(3-fluorocyclobutanecarbonyl)amino]-N-[[(1R,2S)-2-fluorocyclopropyl]methyl]-4,5,6,7-tetrahydro-1-benzothiophene-3-carboxamide] was run?
Its pIC50 is > 6.00.

How did the pIC50 turn out when `Cn1nc(OC(F)F)cc1Nc1nncn1[C@H]1CCc2sc(NC(=O)[C@H]3C[C@H](F)C3)c(C(=O)NC[C@H]3C[C@H](F)C3)c2C1` [Example 486, (5S)-5-[3-[[5-(difluoromethoxy)-2-methylpyrazol-3-yl]amino]-1,2,4-triazol-4-yl]-2-[trans-(3-fluorocyclobutanecarbonyl)amino]-N-[trans-(3-fluorocyclobutyl)methyl]-4,5,6,7-tetrahydro-1-benzothiophene-3-carboxamide] was run?
The pIC50 was > 6.00.

`Cn1nc(OC(F)F)cc1Nc1nncn1[C@H]1CCc2sc(NC(=O)[C@H]3C[C@H](F)C3)c(C(=O)N[C@H]3C[C@H](F)C3)c2C1` [Example 487, (5S)-5-[3-[[5-(difluoromethoxy)-2-methylpyrazol-3-yl]amino]-1,2,4-triazol-4-yl]-2-[trans-(3-fluorocyclobutanecarbonyl)amino]-N-(trans-3-fluorocyclobutyl)-4,5,6,7-tetrahydro-1-benzothiophene-3-carboxamide] was tested. Which pIC50 did it give?
Its pIC50 is > 6.00.

`Cn1nc(OC(F)F)cc1Nc1nncn1[C@H]1CCc2sc(NC(=O)C3CC(F)(F)C3)c(C(=O)NC[C@@H]3C[C@@H]3F)c2C1` [Example 490, (5S)-2-[(3,3-difluorocyclobutanecarbonyl)amino]-5-[3-[[5-(difluoromethoxy)-2-methylpyrazol-3-yl]amino]-1,2,4-triazol-4-yl]-N-[[(1S,2S)-2-fluorocyclopropyl]methyl]-4,5,6,7-tetrahydro-1-benzothiophene-3-carboxamide] was tested. Which pIC50 did it give?
Its pIC50 is > 6.00.

`Cn1nc(OC(F)F)cc1Nc1nncn1[C@H]1CCc2sc(NC(=O)C3CC(F)(F)C3)c(C(=O)NC[C@H]3C[C@H]3F)c2C1` [Example 491, (5S)-2-[(3,3-difluorocyclobutanecarbonyl)amino]-5-[3-[[5-(difluoromethoxy)-2-methylpyrazol-3-yl]amino]-1,2,4-triazol-4-yl]-N-[[(1R,2R)-2-fluorocyclopropyl]methyl]-4,5,6,7-tetrahydro-1-benzothiophene-3-carboxamide] was tested. Which pIC50 did it give?
Its pIC50 is > 6.00.

How did the pIC50 turn out when `Cn1nc(OC(F)F)cc1Nc1nncn1[C@H]1CCc2sc(NC(=O)C3CC(F)(F)C3)c(C(=O)N[C@H]3C[C@H](F)C3)c2C1` [Example 492, (5S)-2-[(3,3-difluorocyclobutanecarbonyl)amino]-5-[3-[[5-(difluoromethoxy)-2-methylpyrazol-3-yl]amino]-1,2,4-triazol-4-yl]-N-(trans-3-fluorocyclobutyl)-4,5,6,7-tetrahydro-1-benzothiophene-3-carboxamide] was run?
Its pIC50 is > 6.00.

With `Cn1nc(C(F)F)cc1Nc1nncn1[C@H]1CCc2sc(NC(=O)C3CC3)c(C(=O)N[C@@H]3CC34CC4)c2C1` [Example 496, (5S)-2-(cyclopropanecarbonylamino)-5-[3-[[5-(difluoromethyl)-2-methyl-pyrazol-3-yl]amino]-1,2,4-triazol-4-yl]-N-[(2R)-spiro[2.2]pentan-2-yl]-4,5,6,7-tetrahydrobenzothiophene-3-carboxamide] as the compound, how does the pIC50 read?
Its pIC50 is > 6.00.

`Cc1cc(Nc2nncn2[C@H]2CCc3sc(NC(=O)C4CC45CC5)c(C(=O)NCC4CC4)c3C2)n(C)n1` (stereo partly drawn) [Example 499, (5S)—N-(cyclopropylmethyl)-5-[3-[(2,5-dimethylpyrazol-3-yl)amino]-1,2,4-triazol-4-yl]-2-(spiro[2.2]pentane-2-carbonylamino)-4,5,6,7-tetrahydrobenzothiophene-3-carboxamide] was tested. Which pIC50 did it give?
Its pIC50 is > 6.00.
